Test results: patent US20240279232A1, “USE OF SUBSTITUTED 5-(4-METHYL-6-PHENYL-4H-BENZO[F]IMIDAZO[1,5-A][1,4] DIAZEPIN-3-YL)-1,2,4-O[…] THE TREATMENT OF INFLAMMATORY CONDITIONS” (priority 2021, published 2024)

What was measured:
Mouse microglia = assay: Cell viability (CellTiter-Glo), mouse microglia; type: cell-based; settings: 50 μM; for Cell viability (%) Mouse microglia 50 μM: CellTiter-Glo; for toxicity at 50 μM (in words): microglia
In short: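 Mouse microglia (1×10^6 cells/mL) activated with 50 ng/ml LPS plus 150 U/mL IFNγ, incubated with compounds ~24 h at 37° C. Viability of remaining cells read by CellTiter-Glo luminescence after supernatant removal for Griess NO assay; […].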

RAW macrophages = assay: NO production (Griess assay), LPS/IFNγ-activated RAW264.7 macrophages; type: cell-based, mouse; settings: Mus musculus, Macrophage, 24 h
HEK293 = assay: Viability assay (CellTiter-Glo), HEK293; type: cell-based, human; settings: for Cell viability (%) HEK293 120 μM: CellTiter-Glo; for toxicity at 120 μM (in words): HEK293, 120 μM
[1] = tested on: BZR (benzodiazepine site of GABAAR); assay: GABAAR/BZR binding, rat brain homogenate with 3H-flunitrazepam; settings: for BZR %: Percent inhibition at 10,000 nM
In short: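 Primary screen at 10,000 nM; where displacement exceeded 50%, Ki came from nonlinear regression of concentration–response data (n=6). Radioligand was 3H-flunitrazepam at roughly Kd on rat brain homogenate, usually 90 min, room temperature, dark, with 10 μM reference compound for nonspecific binding, then filtration and scintillation counting.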

HEPG2 = assay: Viability assay (CellTiter-Glo), HEPG2; type: cell-based, human; settings: for Cell viability (%) HEPG2 120 μM: CellTiter-Glo; for toxicity at 120 μM (in words): HepG2, 120 μM
Swiss Webster mice = assay: Rotarod test; settings: for sensorimotor deficits on the rotarod: p.o. at 4-fold the effective dose in the formalin test
M2 = M2 (Homo sapiens, UniProt P08172); assay: PDSP primary binding M2; settings: PDSP primary screening
Sequence of M2 (P08172 whole entry): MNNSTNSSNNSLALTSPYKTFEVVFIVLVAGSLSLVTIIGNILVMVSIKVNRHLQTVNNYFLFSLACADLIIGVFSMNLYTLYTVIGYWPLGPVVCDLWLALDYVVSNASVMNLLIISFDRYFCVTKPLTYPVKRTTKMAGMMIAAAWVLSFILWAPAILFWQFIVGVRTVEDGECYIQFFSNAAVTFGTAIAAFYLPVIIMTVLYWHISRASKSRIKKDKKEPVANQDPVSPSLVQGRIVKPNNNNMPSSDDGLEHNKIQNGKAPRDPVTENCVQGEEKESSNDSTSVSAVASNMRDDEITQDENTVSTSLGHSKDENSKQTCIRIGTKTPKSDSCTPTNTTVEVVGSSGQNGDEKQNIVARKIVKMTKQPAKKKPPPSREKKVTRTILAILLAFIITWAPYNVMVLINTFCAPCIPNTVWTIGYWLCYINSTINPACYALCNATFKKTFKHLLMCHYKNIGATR
Procedure: (§1) Because reduction of NO could not be reversed by GABAAR antagonists, the possible binding of MP-IV-010 to other cellular receptors was evaluated in collaboration with the NIMH Psychoactive Drug Screening Program.
(§2) Psychoactive Drug Screening Program. Detailed protocols for the primary and secondary radioligand binding assays can be found in the National Institute of Mental Health's Psychoactive Drug Screening Program (NIMH PDSP) Assay Protocol Book. Briefly, primary and secondary radioligand binding assays are carried out in a final of volume of 125 μL per well in appropriate binding buffer. The radioactive ligand concentration is close to the Kd. Total binding and nonspecific binding are determined in the absence and presence of 10 μM of appropriate reference compound, respectively. In brief, plates are usually incubated at room temperature and in the dark for 90 min. Reactions are stopped by vacuum filtration onto 0.3% polyethyleneimine (PEI) soaked 96-well filter mats using a 96-well Filtermate harvester, followed by three washes with cold PBS buffer. Scintillation cocktail is then melted onto the microwave-dried filters on a hot plate and radioactivity counted in a Microbeta counter. The data (n=6) were analyzed by nonlinear regression.

H3 = H3 (Homo sapiens, UniProt Q9Y5N1); assay: PDSP primary binding H3; settings: PDSP primary screening
Sequence of H3 (Q9Y5N1 whole entry): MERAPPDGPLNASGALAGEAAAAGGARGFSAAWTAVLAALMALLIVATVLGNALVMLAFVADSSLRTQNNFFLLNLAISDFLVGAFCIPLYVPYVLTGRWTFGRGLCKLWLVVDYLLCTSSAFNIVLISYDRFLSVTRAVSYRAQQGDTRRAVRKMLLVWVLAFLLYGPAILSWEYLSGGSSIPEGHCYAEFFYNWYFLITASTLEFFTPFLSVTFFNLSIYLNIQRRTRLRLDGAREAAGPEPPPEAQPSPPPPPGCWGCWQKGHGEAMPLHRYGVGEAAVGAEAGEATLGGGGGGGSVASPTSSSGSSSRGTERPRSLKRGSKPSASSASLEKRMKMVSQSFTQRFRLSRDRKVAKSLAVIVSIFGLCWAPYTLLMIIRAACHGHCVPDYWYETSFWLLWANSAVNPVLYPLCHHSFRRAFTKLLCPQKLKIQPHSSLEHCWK
Procedure: as §1, §2

5-HT3 = 5-HT3 (Homo sapiens, UniProt P46098); assay: PDSP primary binding 5-HT3; settings: PDSP primary screening
Sequence of 5-HT3 (P46098 24-478, species assumed): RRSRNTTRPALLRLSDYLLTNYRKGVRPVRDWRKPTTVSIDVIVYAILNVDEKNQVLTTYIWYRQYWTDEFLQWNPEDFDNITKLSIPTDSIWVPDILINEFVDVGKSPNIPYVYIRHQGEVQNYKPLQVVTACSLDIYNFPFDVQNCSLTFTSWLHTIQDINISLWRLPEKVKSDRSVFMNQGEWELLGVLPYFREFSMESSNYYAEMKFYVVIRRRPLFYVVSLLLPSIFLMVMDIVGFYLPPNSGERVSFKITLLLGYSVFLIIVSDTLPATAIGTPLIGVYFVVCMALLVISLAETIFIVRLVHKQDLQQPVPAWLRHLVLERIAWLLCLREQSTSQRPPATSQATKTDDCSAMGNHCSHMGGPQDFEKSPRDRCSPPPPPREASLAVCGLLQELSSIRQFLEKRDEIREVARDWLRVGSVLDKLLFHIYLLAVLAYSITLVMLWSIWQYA
Procedure: as §1, §2

Alpha1D = Alpha1D (Homo sapiens, UniProt P25100); assay: PDSP primary binding Alpha1D; settings: PDSP primary screening
Sequence of Alpha1D (P25100 whole entry): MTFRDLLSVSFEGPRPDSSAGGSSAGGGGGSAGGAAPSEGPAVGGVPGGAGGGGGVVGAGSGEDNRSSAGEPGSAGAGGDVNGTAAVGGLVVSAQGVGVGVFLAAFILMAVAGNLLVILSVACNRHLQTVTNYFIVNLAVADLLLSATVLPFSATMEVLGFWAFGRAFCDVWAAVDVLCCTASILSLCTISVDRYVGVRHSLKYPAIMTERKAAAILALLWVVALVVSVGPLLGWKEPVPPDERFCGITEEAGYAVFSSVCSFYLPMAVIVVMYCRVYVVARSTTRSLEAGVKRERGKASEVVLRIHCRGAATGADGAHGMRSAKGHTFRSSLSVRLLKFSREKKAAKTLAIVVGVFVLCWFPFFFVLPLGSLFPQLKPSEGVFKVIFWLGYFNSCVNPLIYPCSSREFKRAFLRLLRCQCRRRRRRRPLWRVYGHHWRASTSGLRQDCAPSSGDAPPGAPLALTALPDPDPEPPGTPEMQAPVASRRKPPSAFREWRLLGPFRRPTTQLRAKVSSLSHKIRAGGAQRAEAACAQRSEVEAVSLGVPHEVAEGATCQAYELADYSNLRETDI
Procedure: as §1, §2

Calcium Channel = assay: PDSP primary binding Calcium Channel; settings: PDSP primary screening
Procedure: as §1, §2

Alpha1A = Alpha1A (Homo sapiens, UniProt P35348); assay: PDSP primary binding Alpha1A; settings: PDSP primary screening
Sequence of Alpha1A (P35348 whole entry): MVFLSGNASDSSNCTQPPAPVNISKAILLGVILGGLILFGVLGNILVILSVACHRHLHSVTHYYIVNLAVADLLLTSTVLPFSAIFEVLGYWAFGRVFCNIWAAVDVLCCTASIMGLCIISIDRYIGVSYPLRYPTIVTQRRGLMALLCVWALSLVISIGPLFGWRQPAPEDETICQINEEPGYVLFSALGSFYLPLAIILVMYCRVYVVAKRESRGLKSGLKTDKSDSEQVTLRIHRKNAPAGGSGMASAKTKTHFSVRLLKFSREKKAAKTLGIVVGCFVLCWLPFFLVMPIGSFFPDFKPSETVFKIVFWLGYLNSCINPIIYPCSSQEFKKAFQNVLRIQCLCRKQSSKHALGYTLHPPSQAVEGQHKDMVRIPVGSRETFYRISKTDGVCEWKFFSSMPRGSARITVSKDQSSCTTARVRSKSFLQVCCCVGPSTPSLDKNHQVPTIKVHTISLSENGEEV
Procedure: as §1, §2

[2] = rat brain homogenate, 3H-flunitrazepam

SMILES | Cell viability (%) Mouse microglia 50 μM (Mouse microglia) | inhibition at 10 µM (RAW macrophages) | Cell viability (%) HEK293 120 μM (HEK293) | BZR % [1, 2] | Ki [1, 2] | Cell viability (%) HEPG2 120 μM (HEPG2) | inhibition at 50 µM (RAW macrophages) | toxicity at 120 μM (in words) (HEK293) | toxicity at 120 μM (in words) (HEPG2) | toxicity at 50 μM (in words) (Mouse microglia) | ability of mice to balance on a rotating rod for three minutes (Swiss Webster mice; intraperitoneal, 10 and 40 mg/kg) | sensorimotor deficits on the rotarod (Swiss Webster mice) | Percent Competition M2 (M2) | Percent Competition H3 (H3) | Percent Competition 5-HT3 (5-HT3) | Percent Competition Alpha1D (Alpha1D) | Percent Competition Calcium Channel (Calcium Channel) | Percent Competition Alpha1A (Alpha1A) | Percent Competition BZP Rat Brain Site ([1]; PDSP primary screening) | IC50 ([1]; rat brain homogenate, 3H-flunitrazepam, read-out: affinity for the benzodiazepine site of GABAARs (IC50))
CCOC(=O)c1ncn2c1[C@@H](C)N=C(c1ccccn1)c1cc(Br)ccc1-2 [GL-II-06] | 87 ± 13% | 4 ± 2% | 83 ± 13% | 81% | 556 nM | 89 ± 5% | – | – | – | – | – | – | – | – | – | – | – | – | – | –
C[C@H]1N=C(c2ccccn2)c2cc(Br)ccc2-n2cnc(C(=O)O)c21 [GL-II-51] | 95 ± 2% | 0% | 91 ± 4% | 84% | 181 nM | 100 ± 16% | – | – | – | – | – | – | – | – | – | – | – | – | – | –
C[C@H]1N=C(c2ccccc2F)c2cc(Br)ccc2-n2cnc(-c3cnco3)c21 [GL-III-36] | 97 ± 9% | 0% | 80 ± 9% | 86% | 319 nM | 100 ± 9% | 58 ± 9% | – | – | – | – | – | – | – | – | – | – | – | – | –
CCOC(=O)c1ncn2c1[C@@H](C)N=C(c1ccccc1F)c1cc(C3CC3)ccc1-2 [GL-III-42] | 82 ± 10% | 0% | 62 ± 11% | 62% | 726 nM | 100 ± 8% | – | – | – | – | – | – | – | – | – | – | – | – | – | –
C[C@H]1N=C(c2ccccc2F)c2cc(Cl)ccc2-n2cnc(C(=O)O)c21 [GL-III-54] | 82 ± 6% | 6 ± 4% | 96 ± 12% | 100% | 42 nM | 93 ± 4% | – | – | – | – | – | – | – | – | – | – | – | – | – | –
Cc1noc(-c2ncn3c2[C@@H](C)N=C(c2ccccc2F)c2cc(Br)ccc2-3)n1 [GL-III-60, (R)-5-(8-Bromo-6-(2-fluorophenyl)-4-methyl-4H-benzo[f]imidazo[1,5-a][1,4]diazepin-3-yl)-3-methyl-1,2,4-oxadiazole] | 100 ± 9% | 0% | 64 ± 6% | 100% | 784 nM | 100 ± 11% | 39 ± 8% | – | – | – | – | – | – | – | – | – | – | – | – | –
Cc1noc(-c2ncn3c2[C@@H](C)N=C(c2ccccc2F)c2cc(C4CC4)ccc2-3)n1 [GL-III-63, (R)-5-(8-Cyclopropyl-6-(2-fluorophenyl)-4-methyl-4H-benzo[f]imidazo[1,5-a][1,4]diazepin-3-yl)-3-methyl-1,2,4-oxadiazole] | 100 ± 8% | 13 ± 4% | 18 ± 4% | 28% | – | 16 ± 6% | 62 ± 12% | toxic | toxic | – | – | – | – | – | – | – | – | – | – | –
C#Cc1ccc2c(c1)C(c1ccccc1F)=N[C@H](C)c1c(C(=O)NC(C)C)ncn1-2 [GL-III-66] | 85 ± 15% | 6 ± 4% | 46 ± 4% | 88% | 271 nM | 86 ± 8% | – | – | – | – | – | – | – | – | – | – | – | – | – | –
CCNC(=O)c1ncn2c1[C@@H](C)N=C(c1ccccc1F)c1cc(C3CC3)ccc1-2 [GL-III-68] | 83 ± 3% | 5 ± 1% | 56 ± 11% | 100% | 452 nM | 83 ± 2% | – | – | – | – | – | – | – | – | – | – | – | – | – | –
C[C@H]1N=C(c2ccccc2F)c2cc(Br)ccc2-n2cnc(C(=O)N(C)C)c21 [GL-III-69] | 87 ± 6% | 0% | 73 ± 10% | 100% | 446 nM | 88 ± 5% | – | – | – | – | – | – | – | – | – | – | – | – | – | –
C[C@H]1N=C(c2ccccc2F)c2cc(C3CC3)ccc2-n2cnc(C(=O)N(C)C)c21 [GL-III-70] | 86 ± 2% | 2 ± 2% | 86 ± 12% | 100% | 3400 nM | 100 ± 5% | – | – | – | – | – | – | – | – | – | – | – | – | – | –
C#Cc1ccc2c(c1)C(c1ccccc1F)=N[C@H](C)c1c(-c3cnco3)ncn1-2 [GL-III-73] | 80 ± 9% | 1 ± 6% | 86 ± 6% | 65% | 602 nM | 100 ± 9% | – | – | – | – | – | – | – | – | – | – | – | – | – | –
C[C@@H]1N=C(c2ccccc2F)c2cc(Br)ccc2-n2cnc(-c3cnco3)c21 [GL-III-76] | 80 ± 2% | 0% | 59 ± 4% | 100% | 120 nM | 90 ± 6% | – | – | – | – | – | – | – | – | – | – | – | – | – | –
C#Cc1ccc2c(c1)C(c1ccccc1F)=N[C@@H](C)c1c(-c3cnco3)ncn1-2 [GL-III-78] | 79 ± 6% | 0% | 56 ± 8% | 101% | 26 nM | 100 ± 15% | – | – | – | – | – | – | – | – | – | – | – | – | – | –
CCc1noc(-c2ncn3c2[C@@H](C)N=C(c2ccccc2F)c2cc(C4CC4)ccc2-3)n1 [GL-IV-03, (R)-5-(8-Cyclopropyl-6-(2-fluorophenyl)-4-methyl-4H-benzo[f]imidazo[1,5-a][1,4]diazepin-3-yl)-3-ethyl-1,2,4-oxadiazole] | 100 ± 5% | 75% | 47 ± 5% | 65% | – | 39 ± 5% | – | some cytotoxicity | to a lesser degree | no significant toxicity | did not influence the ability of mice to balance | did not cause any sensorimotor deficits | – | – | – | – | – | – | – | –
C#Cc1ccc2c(c1)C(c1ccccc1F)=N[C@H](C)c1c(C(=O)NC)ncn1-2 [MP-III-022] | 86 ± 2% | 9 ± 5% | 75 ± 13% | 95% | 83 nM | 94 ± 7% | 51 ± 7% | – | – | – | – | – | – | – | – | – | – | – | – | –
C#Cc1ccc2c(c1)C(c1ccccc1F)=N[C@H](C)c1c(-c3nc(C)no3)ncn1-2 [MP-IV-004] | 100 ± 5% | 0% | 40 ± 8% | 63% | 1080 nM | 100 ± 4% | 51 ± 7% | – | – | – | – | – | – | – | – | – | – | – | – | –
C#Cc1ccc2c(c1)C(c1ccccc1F)=N[C@H](C)c1c(-c3nc(C(C)C)no3)ncn1-2 [MP-IV-010, (R)-5-(8-ethynyl-6-(2-fluorophenyl)-4-methyl-4H-benzo[f]imidazo[1,5-a][1,4]diazepin-3-yl)-3-isopropyl-1,2,4-oxadiazole] | 91 ± 10% | 10 ± 2% | 41 ± 4% | 64% | 814 nM | 45 ± 7% | 63 ± 11% | some cytotoxicity | to a lesser degree | no significant toxicity | – | did not cause any sensorimotor deficits | 10% | −18% | 13% | 9% | 15% | 2% | 64% | 2500 nM
